The text below walks through data of patent publication US20100041597A1, “PEPTIDES TARGETED TO PROTEIN KINASE C ISOFORMS AND USES THEREOF” (priority 2005, published 2010).

Sequence of PKC-βI (P05771 2-671): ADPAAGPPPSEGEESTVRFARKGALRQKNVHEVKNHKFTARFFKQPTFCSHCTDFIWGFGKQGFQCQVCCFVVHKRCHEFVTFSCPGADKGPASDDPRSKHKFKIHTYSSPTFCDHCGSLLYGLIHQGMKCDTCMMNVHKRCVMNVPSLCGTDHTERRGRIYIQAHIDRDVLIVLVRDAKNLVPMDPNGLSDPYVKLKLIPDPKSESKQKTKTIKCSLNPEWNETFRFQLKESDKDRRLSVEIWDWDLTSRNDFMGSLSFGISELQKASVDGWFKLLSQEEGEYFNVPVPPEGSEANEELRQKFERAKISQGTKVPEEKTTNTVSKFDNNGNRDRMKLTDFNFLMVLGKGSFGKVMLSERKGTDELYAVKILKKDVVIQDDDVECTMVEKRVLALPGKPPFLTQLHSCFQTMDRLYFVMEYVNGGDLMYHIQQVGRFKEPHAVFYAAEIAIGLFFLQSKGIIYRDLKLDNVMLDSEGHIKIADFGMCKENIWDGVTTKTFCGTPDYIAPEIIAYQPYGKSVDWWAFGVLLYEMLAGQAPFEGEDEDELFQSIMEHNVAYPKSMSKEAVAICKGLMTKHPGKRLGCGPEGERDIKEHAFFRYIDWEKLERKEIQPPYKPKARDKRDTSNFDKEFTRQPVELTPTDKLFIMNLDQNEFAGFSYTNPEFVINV

The target in the first experiment is PKC-α (Homo sapiens, UniProt P17252). Nature of the experiment: Competitive binding assay using cell extracts (Western blot). Further details: key to Affinity for PKC isoform α: —: no detectable affinity; Low to very low affinity at 10X or 20X or both PRE concentrations in at least one cell line in the cell extract assay; Low affinity in purified isoform assay.; Moderate affinity at 10X or 20X or both PRE concentrations in at least one cell line in the cell extract assay.; High affinity at 10X or 20X or both PRE concentrations in at least one cell line in the cell extract assay; High affinity in purified isoform assay. The settings on record: Cell extract; PRE at 10X, 20X antibody concentration; Table 20. As to the method: (§1) Binding efficiency and specificity of the peptides PRE 2, 3, 4, 5, 6, 7, 8, 9, 10, 11, 12 and 13 (see Table 3) was also tested using cytoplasmic extracts from different cell lines expressing appropriate PKC isoforms as described for Example 1. Briefly, the protein cytoplasmic extracts were separated by electrophoresis and transferred onto nitrocellulose membranes by standard Western blotting procedures. The bands on the Western blots were detected with matching primary antibodies and alkaline phosphatase conjugated secondary antibody. The bands were then scanned and the relative density measurements obtained.
(§2) This procedure to assess the binding characteristics of the PREs is based on competition binding of the PRE with the primary anti-isoform PKC specific antibodies. The lower the measured band density, the greater the binding of the PRE to the PKC isoform. The PREs were added at 10 and 20 times (10×, 20×) the primary antibody concentration, according to classical competition between antigenic peptide and primary antibody. The following cell lines (obtained from the ATCC) were used: H661—NCI human lung carcinoma NSCLC; MDAMB231—human highly invasive breast cancer cell line from pleural effusion; LS180—human colon adenocarcinoma; LnCAP—human prostate adenocarcinoma; CCD16Lu—human lung fibroblasts; Du145—human prostate carcinoma brain metastasis, and T24—human bladder carcinoma.
(§3) In these cases, the 20× band density figures relative to control and 10× values were reliable.
As to “Ac-KDAQNLIGISI-NH2 [PRE 4, Ac-KDAQNLIGISI-NH2]”, the “Affinity for PKC isoform α” value is listed as “H”.

Consider Ac-isigilgnadk-NH2 [PRE 9], for which the “Affinity for PKC isoform α” value is “M/L”.

As for Ac-ISIGILQNADK-NH2 [PRE 7], the “Affinity for PKC isoform α” value was “L”.

With Ac-ISIGILNQADK-NH2 [PRE 10], the “Affinity for PKC isoform α” value was “H/L”.

Take ILEDKGGDAQNLIGISI [PRE 8]: the “Affinity for PKC isoform α” value is “M/L”.

In the case of Ac-RDAQNLIGISI-NH2 [PRE 11], the “Affinity for PKC isoform α” value was “H/L”.

For the substance Ac-KDANQLIGISI-NH2 [PRE 6], the “Affinity for PKC isoform α” value was “H/L”.

Regarding RRKKGGKDFVVKR [PRE 1], the “Affinity for PKC isoform α” value is “H”.

In the case of Ac-AKGIQEVKGGDAQNLIGISI-NH2 [PRE 3], the “Affinity for PKC isoform α” value was “H”.

As to Ac-AKGIQEVKGGKDAQNLIGISI-NH2 [PRE 5], the “Affinity for PKC isoform α” value is listed as “M”.

Ac-RDAQNLI-NH2 [PRE 13]: the “Affinity for PKC isoform α” value is listed as “M/H”.

For the substance Ac-KDAQNLI-NH2 [PRE 12], the “Affinity for PKC isoform α” value is “—”.

The same experiment, now with this note: cell extracts.
For the substance “Ac-KDAQNLIGISI-NH2 [PRE 4, Ac-KDAQNLIGISI-NH2]”, the “affinity for PKC-α” value is “strong affinity for PKC-α”.

Another experiment concerns PKC-βII. Described as above. Further details: species or system human; key: —: no detectable affinity; Low to very low affinity at 10X or 20X or both PRE concentrations in at least one cell line in the cell extract assay; Low affinity in purified isoform assay.; Moderate affinity at 10X or 20X or both PRE concentrations in at least one cell line in the cell extract assay.; High affinity at 10X or 20X or both PRE concentrations in at least one cell line in the cell extract assay; High affinity in purified isoform assay. As to conditions: Cell extract; PRE at 10X, 20X antibody concentration; Table 20. How it is done:
as §1, §2, §3
“Ac-KDAQNLIGISI-NH2 [PRE 4, Ac-KDAQNLIGISI-NH2]”: the “Affinity for PKC isoform βII” value is reported as “L”.

Regarding Ac-isigilgnadk-NH2 [PRE 9], the “Affinity for PKC isoform βII” value is “—”.

For the substance Ac-ISIGILNQADK-NH2 [PRE 10], the “Affinity for PKC isoform βII” value is recorded as “—”.

On to ILEDKGGDAQNLIGISI [PRE 8], for which the “Affinity for PKC isoform βII” value is reported as “H”.

On to Ac-AKGIQEVKGGDAQNLIGISI-NH2 [PRE 3], for which the “Affinity for PKC isoform βII” value is recorded as “L”.

In the case of Ac-AKGIQEVKGGKDAQNLIGISI-NH2 [PRE 5], the “Affinity for PKC isoform βII” value is reported as “H”.

On to Ac-KDAQNLI-NH2 [PRE 12], for which the “Affinity for PKC isoform βII” value is recorded as “L”.

Another experiment deals with PKC-α. Nature of the experiment: Binding of PREs to PKC-α in V5E-transfected IMR-32 cells and effect on cell morphology. The class given is cell-based, human. As to conditions: V5E-transfected IMR-32 cells. The source says:
Neuroblastoma cells from the IMR-32 cell line were stably transfected with a vector containing the V5E sequence of PKC-α as outlined above in Example 13. The V5E sequence is part of the antigenic amino acid sequence that is used to raise the commercially available anti-PKC-α isoform-specific antibody.
The peptides PRE 1, 2, 3, 4, 5, 6, 7, 8, 9, 10, 11, 12 and 13 (see Table 3) were incorporated into the transfected IMR-32 cells via pinocytic endocytosis (Molecular Probes) according to the supplier's recommendations. Following fixation and permeabilization, PKC-α was detected using an Alexa fluor secondary antibody (as described above in Example 8).
Results: The expressed V5E fragment adds to the decoration of PKC-α in the transfected IMR-32 cells since it is recognized by the same antibody (compare FIGS. 20A and 20B).
Regarding “Ac-KDAQNLIGISI-NH2 [PRE 4, Ac-KDAQNLIGISI-NH2]”, the “PKC-α label” value is reported as “decreased label” and the “effect on cell morphology” value was “morphological changes with enlarged cells”.

Regarding Ac-isigilgnadk-NH2 [PRE 9], the “PKC-α label” value is given as “strong perinuclear label”.

Turning to Ac-ISIGILNQADK-NH2 [PRE 10], the “effect on karyokinesis” value was “aborted karyokinesis”.

In the case of Ac-RDAQNLIGISI-NH2 [PRE 11], the “effect on cell morphology” value is on record as “apoptotis”.

As to Ac-KDANQLIGISI-NH2 [PRE 6], the “effect on karyokinesis” value is “aborted karyokinesis”.

Consider RRKKGGKDFVVKR [PRE 1], for which the “effect on cell morphology” value is “many dividing cells and abnormal morphology”.

In the case of Ac-AKGIQEVKGGDAQNLIGISI-NH2 [PRE 3], the “PKC-α label” value is listed as “more intense perinuclear decoration”.

Regarding Ac-AKGIQEVKGGKDAQNLIGISI-NH2 [PRE 5], the “effect on cell morphology” value is listed as “poor morphology” and the “effect on karyokinesis” value is recorded as “aborted karyokinesis”.

For the substance Ac-RDAQNLI-NH2 [PRE 13], the “effect on cell morphology” value is “little effect on the cell morphology”.

Regarding Ac-KDAQNLI-NH2 [PRE 12], the “effect on cell morphology” value was “little effect on the cell morphology”.

The same experiment, now with this note: V5E-transfected IMR-32 cells, PRE by pinocytic endocytosis; transfected + reagent control 113.
With “Ac-KDAQNLIGISI-NH2 [PRE 4, Ac-KDAQNLIGISI-NH2]”, the “Relative Fluorescence Intensity (mean)” value is 79.

Take Ac-isigilgnadk-NH2 [PRE 9]: the “Relative Fluorescence Intensity (mean)” value came out at 121.

For the substance Ac-AKGIQEVKGGDAQNLIGISI-NH2 [PRE 3], the “Relative Fluorescence Intensity (mean)” value is 83.

Regarding Ac-AKGIQEVKGGKDAQNLIGISI-NH2 [PRE 5], the “Relative Fluorescence Intensity (mean)” value turned out to be 124.

As for Ac-RDAQNLI-NH2 [PRE 13], the “Relative Fluorescence Intensity (mean)” value stood at 116.

Another experiment has as its target PKC-βI (Homo sapiens, UniProt P05771). Description: Competitive binding assay using cell extracts (Western blot). The settings on record: Cell extract; PRE at 10X, 20X antibody concentration; Table 20. More on the design: cytoplasmic extracts from different cell lines expressing appropriate PKC isoforms; endogenous in cells; host or cells: H661, MDAMB231, LS180, T24; key to Affinity for PKC isoform βI: —: no detectable affinity; Low to very low affinity at 10X or 20X or both PRE concentrations in at least one cell line in the cell extract assay; Low affinity in purified isoform assay.; Moderate affinity at 10X or 20X or both PRE concentrations in at least one cell line in the cell extract assay.; High affinity at 10X or 20X or both PRE concentrations in at least one cell line in the cell extract assay; High affinity in purified isoform assay. As to the method:
as §1, §2, §3
On the technique in general: A western blot detects proteins with antibodies after separation by electrophoresis.
Take “Ac-KDAQNLIGISI-NH2 [PRE 4, Ac-KDAQNLIGISI-NH2]”: the “Affinity for PKC isoform βI” value is “H”.

As for Ac-isigilgnadk-NH2 [PRE 9], the “Affinity for PKC isoform βI” value was “M”.

With Ac-ISIGILQNADK-NH2 [PRE 7], the “Affinity for PKC isoform βI” value is listed as “—”.

For Ac-ISIGILNQADK-NH2 [PRE 10], the “Affinity for PKC isoform βI” value was “M”.

Regarding Ac-RDAQNLIGISI-NH2 [PRE 11], the “Affinity for PKC isoform βI” value is listed as “H”.

With Ac-KDANQLIGISI-NH2 [PRE 6], the “Affinity for PKC isoform βI” value is reported as “H”.

With RRKKGGKDFVVKR [PRE 1], the “Affinity for PKC isoform βI” value is on record as “H”.

Consider Ac-AKGIQEVKGGDAQNLIGISI-NH2 [PRE 3], for which the “Affinity for PKC isoform βI” value is listed as “L”.

Consider Ac-AKGIQEVKGGKDAQNLIGISI-NH2 [PRE 5], for which the “Affinity for PKC isoform βI” value is on record as “H”.

As for Ac-RDAQNLI-NH2 [PRE 13], the “Affinity for PKC isoform βI” value was “—”.

Take Ac-KDAQNLI-NH2 [PRE 12]: the “Affinity for PKC isoform βI” value is “—”.

The experiment is the same for the next values; noted with them: cell extracts.
Turning to “Ac-KDAQNLIGISI-NH2 [PRE 4, Ac-KDAQNLIGISI-NH2]”, the “affinity for PKC-βI” value is on record as “good affinity for PKC-βI”.

In another experiment the target is T1, PKC-ε (Homo sapiens, UniProt Q02156).
T1 sequence (Q02156 1-737): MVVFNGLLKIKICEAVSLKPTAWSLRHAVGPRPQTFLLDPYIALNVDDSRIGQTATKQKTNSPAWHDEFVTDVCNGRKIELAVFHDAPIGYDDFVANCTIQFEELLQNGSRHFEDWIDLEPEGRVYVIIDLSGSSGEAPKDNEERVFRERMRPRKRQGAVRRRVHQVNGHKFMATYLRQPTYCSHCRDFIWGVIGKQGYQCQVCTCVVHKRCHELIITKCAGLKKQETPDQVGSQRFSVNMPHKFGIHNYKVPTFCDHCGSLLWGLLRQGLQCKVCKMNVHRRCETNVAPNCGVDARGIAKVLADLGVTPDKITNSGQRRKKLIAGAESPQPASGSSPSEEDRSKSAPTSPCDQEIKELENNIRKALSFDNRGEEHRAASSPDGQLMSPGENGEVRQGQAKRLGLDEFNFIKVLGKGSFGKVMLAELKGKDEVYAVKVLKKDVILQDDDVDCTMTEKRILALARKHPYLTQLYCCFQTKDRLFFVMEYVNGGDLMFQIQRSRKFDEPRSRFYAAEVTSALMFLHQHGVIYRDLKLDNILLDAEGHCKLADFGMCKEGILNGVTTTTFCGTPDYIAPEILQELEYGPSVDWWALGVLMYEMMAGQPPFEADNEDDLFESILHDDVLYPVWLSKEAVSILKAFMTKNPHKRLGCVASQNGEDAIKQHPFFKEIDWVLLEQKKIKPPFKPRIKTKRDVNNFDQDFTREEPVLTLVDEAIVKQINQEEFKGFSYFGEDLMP
The description is as above. More on the design: cytoplasmic extracts from different cell lines expressing appropriate PKC isoforms; endogenous in cells; host or cells: CCD16Lu, LnCAP, Du145, MDAMB231, LS180; key: —: no detectable affinity; Low to very low affinity at 10X or 20X or both PRE concentrations in at least one cell line in the cell extract assay; Low affinity in purified isoform assay.; Moderate affinity at 10X or 20X or both PRE concentrations in at least one cell line in the cell extract assay.; High affinity at 10X or 20X or both PRE concentrations in at least one cell line in the cell extract assay; High affinity in purified isoform assay. The settings on record: Cell extract; PRE at 10X, 20X antibody concentration; Table 20. How it is done:
as §1, §2, §3
With “Ac-KDAQNLIGISI-NH2 [PRE 4, Ac-KDAQNLIGISI-NH2]”, the “Affinity for PKC isoform ε” value was “H/L”.

Regarding Ac-isigilgnadk-NH2 [PRE 9], the “Affinity for PKC isoform ε” value is “M/L”.

For the substance Ac-ISIGILQNADK-NH2 [PRE 7], the “Affinity for PKC isoform ε” value is reported as “—”.

For the substance Ac-ISIGILNQADK-NH2 [PRE 10], the “Affinity for PKC isoform ε” value was “M/L”.

As to ILEDKGGDAQNLIGISI [PRE 8], the “Affinity for PKC isoform ε” value was “L”.

On to Ac-RDAQNLIGISI-NH2 [PRE 11], for which the “Affinity for PKC isoform ε” value is listed as “—”.

Take Ac-KDANQLIGISI-NH2 [PRE 6]: the “Affinity for PKC isoform ε” value is “M”.

Ac-AKGIQEVKGGDAQNLIGISI-NH2 [PRE 3]: the “Affinity for PKC isoform ε” value is recorded as “L”.

As for Ac-AKGIQEVKGGKDAQNLIGISI-NH2 [PRE 5], the “Affinity for PKC isoform ε” value was “L”.

Turning to Ac-RDAQNLI-NH2 [PRE 13], the “Affinity for PKC isoform ε” value is listed as “—”.

Ac-KDAQNLI-NH2 [PRE 12]: the “Affinity for PKC isoform ε” value is listed as “—”.
